Structures can show the parent of a compound that is named as a salt.

One experiment has as its system renal hypertensive dogs. The experiment can be described thus: lowering of blood pressure in renal hypertensive dogs. It counts as in vivo, dog. Here is the method:
In renal hypertensive dogs, preparated essentially according to H. Golblatt, J. Linch. and R. F. Manzal, J. Exp. Med. 59, 347 (1934), some of the compounds of the invention show a considerable lowering of the systolic blood pressure without affecting the heart rate to a great extent.
The test compounds are administered orally and the pressure is measured according to the method of H. Friebel, E. Vrenden, Arch. Exp. Phat. Pharmak. 232, 419 ([…]).
In the above test system the compound of example 100 determines a 20% drop of the blood pressure when administered 0.5 mg/kg p.o., the compound of example 106 determines a 22% drop when administered 1 mg/kg p.o., the compounds of Examples 134 and 135 determine a drop of 34% and 25%, respectively, when administered 5 mg/kg p.o., and the compound of example 107 determines a 43% drop of the blood pressure when administered 10 mg/kg p.o.

The next experiment addresses α1 adrenoceptor. Description: displacement of ^3 H-prazosin specifically bound in rat brain homogenate (radioligand binding). The conditions noted are these: ^3 H Prazosin binding, Ki calculated from IC50, read-out: K1 (nM) ^3 H Prazosin. The procedure: The compounds of the invention were tested […] for their ability to compete with labelled ligands of α1, α2 -adrenergic,and dopaminergic receptors. Said tests were made essentially following:
(b) the method described by P. Greengrass et al., European Journal of Pharmacology, Vol. 55, pp. 323-326, (1979), which uses the specific displacement of ^3 H-prazosin specifically bound in rat brain homogenate, for the identification of substances interacting with the so called "α1 "adrenoceptor;
The above mentioned methods are radioligand binding assays and are based on the knowledge that many natural or synthetic physiologically active substances such as neurotransmitters, hormones, and others, specifically link to cellular receptors, generally of proteic nature. They are generally obtained from a tissue or organ of a suitable test-animal after isolation and homogenization of said tissue or organ.
The homogenate is twice centrifugated to separate and partially purify the receptorial fraction (synaptosomes).
The labelled substances employed are known to specifically bind their receptors, so the drug-receptor dissociation constants obtained for each test compound under standard conditions are a measure of their actual binding affinities. The validation of the above methods in predicting a possible pharmacological activity was carried out comparing the in vitro binding constants of a number of […] agonist or antagonist of the adrenergic or dopaminergic system with their in vivo activities. The α1 -adrenergic activity is essentially correlated with a peripheral vasodilatation. The α2 -adrenergic activity is essentially correlated with a hypotensive action of central origin, and the dopaminergic activity is correlated with a neuroleptic action. IC50 values, defined as the drug concentration that cause 50% inhibition of the specific ^3 H ligant binding, are observed by incubating from 5 to 7 different dilutions of the tested compound in duplicate or triplicate. Ki, inhibition constant, values are calculated from the following formula: [formula] wherein IC50 is defined as above, C is the concentration of the ^3 H ligand, and KD is the dissociation constant of the ^3 H ligand-receptor complex.

The test system of a further experiment is mice. Description: pole climbing avoidance test. The conditions noted are these: i.p., treated/untreated mice. Format: in vivo. The source says: The neuroleptic activity of the compounds of the invention was investigated by means of the "pole climbing avoidance test", as described by L. Cook et al. (Ann. N.Y. Acad. Sci. 66, 740, 1957) and subsequently modified by Maffii et al. (J. Pharm. Pharmac., 11, 129, 1959). As a representative example, the compound of example 38 scores as follows in the above test:
The symbols CR, CR2, and UR corresponds to the primary, secondary conditioned response and to the unconditioned response according to the above test.

Experiment [1] is described as follows: positive inotropic activity in conventional in vitro tests (isolated preparation).
Experiment [2] concerns spontaneously hypertensive rat. The experiment can be described thus: lowering of arterial pressure in the spontaneously hypertensive rat. Format: in vivo. The conditions noted are these: p.o. 50 mg/kg. Here is the method:
Journal, Vol. 27, p. 282, (1963). The arterial pressure was evaluated according to H. Fribel, E. Vredom, described in Arch. Exp. Phat. Pharmak. Vol. 232, p. 416, (1958). […] This 15% threshold is generally considered predictive of significant antihypertensive activity.

As for `Cc1ccc(Cn2nc(-c3ccc(F)cc3)c3c2CCNC3)cc1` [Example 107, 3-(4-fluorophenyl)-1-(4-methylphenylmethyl)-4,5,6,7-tetrahydro-1H-pyrazolo/4,3-c/pyridine, methanesulfonate], the “drop of the blood pressure” value in the experiment on renal hypertensive dogs (10 mg/kg p.o.) is reported as 43%. Besides, the Ki on α1 adrenoceptor is 23.6 nM.

`Cc1ccc(Cn2nc(-c3ccc(F)cc3)c3c2CCN(C)C3)cc1` [Example 135, 3-(4-fluorophenyl)-1-(4-methylphenylmethyl)-5-methyl-4,5,6,7-tetrahydro-1H-pyrazolo/4,3-c/pyridine, methanesulfonate]: in the experiment with renal hypertensive dogs (5 mg/kg p.o.), the “drop of the blood pressure” value is recorded as 25%. In addition, the Ki on α1 adrenoceptor is 47.2 nM.

In the case of `Fc1ccc(Cn2nc(-c3ccc(F)cc3)c3c2CCNC3)cc1` [Example 106], the “drop of the blood pressure” value in the experiment on renal hypertensive dogs (1 mg/kg p.o.) worked out at 22%. The Ki at α1 adrenoceptor is 0.331 nM.

Take `CN1CCc2[nH]nc(-c3ccc(F)cc3)c2C1` [Example 38, 3-(4-fluorophenyl)-5-methyl-4,5,6,7-tetrahydro-1H-pyrazolo/4,3-c/pyridine]: in the experiment on mice (10 mg/kg), the “CR2 (secondary conditioned response)” value is recorded as 9/10, the “CR (primary conditioned response)” value is reported as 3/10 and the “UR (unconditioned response)” value was 0/10. Besides, in the experiment on mice (25 mg/kg), the “CR2 (secondary conditioned response)” value is 10/10, the “CR (primary conditioned response)” value is on record as 8/10 and the “UR (unconditioned response)” value is 0/10.

With `CN1CCc2c(c(-c3ccc(F)cc3)nn2Cc2ccc(F)cc2)C1` [Example 134, 3-(4-fluorophenyl)-1-(4-fluorophenylmethyl)-5-methyl-4,5,6,7-tetrahydro-1H-pyrazolo/4,3-c/pyridine, hydrochloride], the “drop of the blood pressure” value with renal hypertensive dogs (5 mg/kg p.o.) is given as 34%. Besides, on α1 adrenoceptor, the Ki was 6.35 nM.

With `CCn1nc(-c2cccs2)c2c1CCNC2` [Example 102, 1-ethyl-3-(2-thienyl)-4,5,6,7-tetrahydro-1H-pyrazolo/4,3-c/pyridine, methanesulfonate], the positive inotropic activity entry in experiment [1] is on record as “good positive inotropic activity”. Also, in experiment [1] (propanolol), the “antagonism of the inotropic activity by propanolol (β-adrenergic effects)” value was “not antagonized by propanolol”.

For `Fc1ccc(-c2nn(Cc3ccccc3)c3c2CNCC3)cc1` [Example 100, 3-(4-fluorophenyl)-1-phenylmethyl-4,5,6,7-tetrahydro-1H-pyrazolo/4,3-c/pyridine, hydrochloride], the “drop of the blood pressure” value in the experiment on renal hypertensive dogs (0.5 mg/kg p.o.) is listed as 20%. Moreover, in experiment [2], the “lowering of the pressure” value turned out to be 30%. Also, the Ki on α1 adrenoceptor was 14.7 nM.

With `Fc1ccc(-c2nn(CCCc3ccccc3)c3c2CNCC3)cc1` [Example 111, 3-(4-fluorophenyl)-1-(3-phenylpropyl)-4,5,6,7-tetrahydro-1H-pyrazolo/4,3-c/pyridine, methanesulfonate], the Ki at α1 adrenoceptor was 12.9 nM.

Source of the values: patent US4500525A, “Pharmacologically active pyrazolo/4,3-c/pyridines” (Gruppo Lepetit S.p.A., priority 1982, dated 1985).
